Data taken from publication PMC8510269, “A Simple Method of Synthesis of 3-Carboxy-2,2,5,5-Tetraethylpyrrolidine-1-oxyl and Preparation of Reduction-Resistant Spin Labels and Probes of Pyrrolidine Series” (Molecules, 2021).
Where two headings read alike, the source gives them in different places.

Key:
[1] = Partition coefficient octanol/water estimated from EPR amplitudes; assay type: physicochemical; conditions: ratio of concentrations in octanol to water; distilled water
Procedure: (§1) The EPR spectra in water were recorded on a Bruker ER-200D-SRC spectrometer in 50 µL glass capillary for 0.2–0.4 mM radical solutions degassed via bubbling with argon. Spectrometer settings: frequency, 9.87 GHz; microwave power, 5.0 mW; modulation amplitude, 0.05 mT; time constant, 50–100 ms; and conversion time, 5.12 ms. For kinetic measurements in water, stock solutions of nitroxide, ascorbic acid and glutathione in phosphate buffer (5 mM, pH 7.4) were prepared, and pH was adjusted to 7.4 with NaOH or HCl. All the solutions were deoxygenated with argon, carefully and quickly mixed in a small tube to attain final concentrations (nitroxide, 0.2–04 mM; GSH, 2 mM; and ascorbate, 100–300 mM) and were placed into an EPR capillary (50 μL). The capillary was sealed on both sides and placed into the EPR resonator. The decay of amplitude of the low-field component of the EPR spectrum was followed to obtain the kinetics. The initial part of the decay curves (up to 200 min) was used for fitting. Kinetics of the decay was fitted to a monoexponential function to calculate the first-order rate constants. Then, these constants were divided by the concentration of ascorbic acid to calculate the second-order reaction constants (Figure S3). Partition coefficients in a water–octanol mixture were estimated from the amplitudes of the EPR spectra of a nitroxide in water after extensive shaking with different portions of added octanol and separation using centrifugation.

[2] = Reduction of nitroxides with ascorbate in the presence of glutathione (EPR kinetics); assay type: physicochemical; conditions: nitroxide 0.3–0.4 mM, ascorbate 100–300 mM, 50 mM phosphate buffer, pH 7.4, 25 °C, glutathione 2 mM
Procedure: as §1, with “For kinetic measurements in water, stock solutions of nitroxide, ascorbic acid and glutathione in phosphate buffer (5 mM, pH 7.4) were prepared, and pH was adjusted to 7.4 with NaOH or HCl.” left out

[3] = literature value, cited from earlier work
[4] = parameters: method as in PMID 25348344; conditions: cited from earlier work
[5] = Decay of nitroxides in murine blood (EPR); assay type: in vitro ADME, mice; conditions: nitroxide 0.2 mM
Procedure: (§2) The measurements of kinetics of nitroxide decay in blood and tissue homogenates were performed using an Elexsys E540 X-band spectrometer in a 50 µL glass capillary for 0.2 mM solutions, with the following spectrometer settings: frequency, 9.87 GHz; centerfield, 350.6 mT; sweep range, 10 mT; microwave power, 2.0 mW; modulation amplitude, 0.1 mT; time constant, 10.24 ms; and conversion time, 20.48 ms.
(§3) The stock solutions of the nitroxides 25 and 31 in water ([…]) were prepared, and pH was adjusted to 7.0 with NaOH. A total of 2 μL of the nitroxide solution was added to 98 μL of the blood or tissue homogenate, giving a nitroxide concentration equal to 0.2 mM. The resulting mixture of nitroxide with blood or tissue homogenate was transferred to the glass capillary (50 μL) and the latter was placed into the EPR resonator. The decay of the double integral of the EPR spectrum was followed to obtain the kinetics.
Male five-month-old C57BL/6 mice were obtained from the Breeding Experimental Animal Laboratory of the Institute of Cytology and Genetics (ICG), Siberian Division of the Russian Academy of Sciences (Novosibirsk, Russia). All the experiments were carried out according to Animal Care Regulations of the Institute of Cytology and Genetics (ICG), Novosibirsk. Animals were sacrificed by decapitation, blood was collected into a microcentrifuge tube with heparin (final concentration 5%), gently rocked by hand and snap-frozen with liquid nitrogen immediately after collection. Organ tissue (brain, heart, liver and kidney) was excised on ice, rinsed with ice-cold 10 mM PBS (pH 7.4), sheared with scissors and homogenized in PBS (1/1 by weight) on ice using electric homogenizer fitted with a Teflon head. The homogenates were then additionally mixed with PBS (1/1 by weight, final dilution 1/3) to decrease viscosity for further aspiration into glass capillaries, and snap-frozen in liquid nitrogen. […]

[6] = Decay of nitroxides in tissue homogenates (brain, kidney, liver, heart; EPR); assay type: in vitro ADME, mice; conditions: nitroxide 0.2 mM
Procedure: as §2, §3
Male five-month-old C57BL/6 mice were obtained from the Breeding Experimental Animal Laboratory of the Institute of Cytology and Genetics (ICG), Siberian Division of the Russian Academy of Sciences (Novosibirsk, Russia). All the experiments were carried out according to Animal Care Regulations of the Institute of Cytology and Genetics (ICG), Novosibirsk. […]

Molecule	melting point	Kp (partition coefficient octanol/water) [1]	kred × 10^4 (second-order rate constant for the initial rate of reduction with ascorbate) [2]	also measured
CCC1(CC)CC(C(=O)OC)C(CC)(CC)N1O.Cl (stereo not shown)	148 to 150 °C	–	–	–
CCC1(CC)CC(C(=O)O)C(CC)(CC)N1[O] (stereo not shown) [Nitroxide 1, 3-Carboxy-2,2,5,5-tetraethylpyrrolidine-1-oxyl]	–	270	3.3 ± 0.5 M^−1 s^−1	kred × 10^4 (second-order rate constant of reduction with ascorbate) ([3]; ref 9): 20 ± 10 M^−1 s^−1; kred × 10^4 (second-order rate constant of reduction with ascorbate) ([3]; ref 14): ≤ 10 M^−1 s^−1; kred × 10^4 (second-order rate constant of reduction with ascorbate) ([3]; ref 45): 12.5 ± 0.3 M^−1 s^−1; Decay in cytosolic extract compared with trityl radical [4]: slower decay in cytosolic extract than trityl radical
CCC1(CC)CC(CNC(=O)CN2CCCC2)C(CC)(CC)N1[O] (stereo not shown) [Nitroxide 29, 3-(2-(Pyrrolidin-1-yl)acetamidomethyl)-2,2,5,5-tetraethylpyrrolidine-1-oxyl]	–	70	2.5 ± 0.4 M^−1 s^−1	–
CCC1=[N+]([O-])C(CC)(CC)C(C(=O)O)C1 (stereo not shown) [Nitroxide 8, 3-Carboxy-2,2,5-triethyl-3,4-dihydro-2H-pyrrole 1-oxide]	145 to 146 °C	–	–	–
CCC1(CC)CC(CN)C(CC)(CC)N1[O] (stereo not shown) [Nitroxide 22, 3-Aminomethyl-2,2,5,5-tetraethylpyrrolidine-1-oxyl]	–	5.5	4.1 ± 0.2 M^−1 s^−1	Decay in blood (in words) ([5]; 30 min): No decay
3-(2-Triphenylphosphonio)acetamidomethyl-2,2,5,5-tetraethylpyrrolidine-1-oxyl chloride [Nitroxide 28]	–	13	2.4 ± 0.4 M^−1 s^−1	Time to plateau of decay in blood [5]: 10 min; Decrease of concentration in blood ([5]; plateaus in 10 min): ca. 10%; Decay in homogenate of brain ([6]; mouse brain homogenate): Faster decay of 28 as compared to 22; Decay in homogenate of liver ([6]; mouse liver homogenate): Faster decay of 28 as compared to 22
CCC1(CC)CC(C(=O)O)C(CC)(CC)N1 (stereo not shown) [Nitroxide 15, 3-Carboxy-2,2,5,5-tetraethylpyrrolidine]	113 to 114 °C	–	–	–
CCC1(CC)CC(CN2CCCCC2)C(CC)(CC)N1[O] (stereo not shown) [Nitroxide 30, 3-((Piperidin-1-yl)methyl)-2,2,5,5-tetraethylpyrrolidine-1-oxyl]	–	30	2.2 ± 0.5 M^−1 s^−1	–
